Biological target: Mu-type opioid receptor (Homo sapiens, UniProt P35372)
Experiment: DRUGMATRIX: Opiate mu (OP3, MOP) radioligand binding (ligand: [3H] Diprenorphine)
Type: cell membranes, CHO-K1, Membrane
Details: cho-k1; Not Active = under 50% inhibition at 10 µM

Chain of Mu-type opioid receptor (P35372 whole entry): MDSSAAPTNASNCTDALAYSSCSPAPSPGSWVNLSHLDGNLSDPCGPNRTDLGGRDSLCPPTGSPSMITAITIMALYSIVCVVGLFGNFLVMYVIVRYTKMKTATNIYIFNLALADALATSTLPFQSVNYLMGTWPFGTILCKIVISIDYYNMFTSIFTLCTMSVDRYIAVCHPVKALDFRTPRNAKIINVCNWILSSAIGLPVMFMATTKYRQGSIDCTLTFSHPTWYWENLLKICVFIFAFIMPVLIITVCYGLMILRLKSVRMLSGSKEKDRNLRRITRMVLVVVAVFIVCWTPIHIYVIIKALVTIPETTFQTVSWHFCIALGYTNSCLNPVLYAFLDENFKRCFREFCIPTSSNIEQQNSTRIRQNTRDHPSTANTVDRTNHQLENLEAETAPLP

SMILES | IC50
CCOC(=O)OC(C)OC1=C(C(=O)Nc2ccccn2)N(C)S(=O)(=O)c2ccccc21 (stereo not given) [AMPIROXICAM] | Not Active
CC[N+](CC)(CC)CCOc1cccc(OCC[N+](CC)(CC)CC)c1OCC[N+](CC)(CC)CC.[I-].[I-].[I-] [GALLAMINE TRIETHIODIDE] | Not Active

Tested on: not listed separately
Experiment: DRUGMATRIX: beta-Lactamase enzyme inhibition (substrate: Nitrocefin)
Set-up: species or system Bacillus cereus
Details: Not Active = under 50% inhibition at 10 µM

SMILES | IC50 | Ki
CCOC(=O)OC(C)OC1=C(C(=O)Nc2ccccn2)N(C)S(=O)(=O)c2ccccc21 (stereo not given) [AMPIROXICAM] | Not Active | Not Active
CC[N+](CC)(CC)CCOc1cccc(OCC[N+](CC)(CC)CC)c1OCC[N+](CC)(CC)CC.[I-].[I-].[I-] [GALLAMINE TRIETHIODIDE] | Not Active | Not Active

Biological target: T1, Cysteinyl leukotriene receptor 1 (Homo sapiens, UniProt Q9Y271); note: in other assays of this panel Not Active means under 50% inhibition at 10 µM
T1 sequence (Q9Y271 whole entry): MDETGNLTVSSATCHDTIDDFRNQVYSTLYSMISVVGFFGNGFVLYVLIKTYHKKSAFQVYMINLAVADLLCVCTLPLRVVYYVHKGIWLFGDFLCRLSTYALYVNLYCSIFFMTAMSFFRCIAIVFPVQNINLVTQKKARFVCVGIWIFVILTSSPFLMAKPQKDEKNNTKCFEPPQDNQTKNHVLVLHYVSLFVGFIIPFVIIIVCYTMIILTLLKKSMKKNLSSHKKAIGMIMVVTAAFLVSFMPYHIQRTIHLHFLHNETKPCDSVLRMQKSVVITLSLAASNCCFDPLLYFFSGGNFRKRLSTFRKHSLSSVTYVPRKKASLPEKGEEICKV
Experiment: not given
Type: cell membranes, CHO-K1, Membrane
Details: cho-k1

SMILES | IC50
CCOC(=O)OC(C)OC1=C(C(=O)Nc2ccccn2)N(C)S(=O)(=O)c2ccccc21 (stereo not given) [AMPIROXICAM] | Not Active
CC[N+](CC)(CC)CCOc1cccc(OCC[N+](CC)(CC)CC)c1OCC[N+](CC)(CC)CC.[I-].[I-].[I-] [GALLAMINE TRIETHIODIDE] | Not Active

Biological target: 5-hydroxytryptamine receptor 1B (Rattus norvegicus, UniProt P28564); note: in other assays of this panel Not Active means under 50% inhibition at 10 µM
Sequence (P28564 whole entry): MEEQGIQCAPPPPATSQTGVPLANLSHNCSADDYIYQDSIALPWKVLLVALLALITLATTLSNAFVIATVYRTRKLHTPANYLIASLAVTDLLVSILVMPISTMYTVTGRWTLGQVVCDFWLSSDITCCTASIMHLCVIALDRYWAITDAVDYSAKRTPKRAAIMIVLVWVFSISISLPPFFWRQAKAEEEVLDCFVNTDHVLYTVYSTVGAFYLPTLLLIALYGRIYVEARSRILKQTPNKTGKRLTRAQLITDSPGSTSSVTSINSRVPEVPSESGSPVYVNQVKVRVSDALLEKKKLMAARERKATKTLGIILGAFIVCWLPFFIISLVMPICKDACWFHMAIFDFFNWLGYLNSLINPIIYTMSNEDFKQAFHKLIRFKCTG
Experiment: not given
Type: cell membranes, Wistar, Cerebral cortex, Membrane
Details: not given

SMILES | IC50
CCOC(=O)OC(C)OC1=C(C(=O)Nc2ccccn2)N(C)S(=O)(=O)c2ccccc21 (stereo not given) [AMPIROXICAM] | Not Active
CC[N+](CC)(CC)CCOc1cccc(OCC[N+](CC)(CC)CC)c1OCC[N+](CC)(CC)CC.[I-].[I-].[I-] [GALLAMINE TRIETHIODIDE] | Not Active

Biological target: T2, 5-hydroxytryptamine receptor 2C (Homo sapiens, UniProt P28335)
T2 sequence (P28335 whole entry): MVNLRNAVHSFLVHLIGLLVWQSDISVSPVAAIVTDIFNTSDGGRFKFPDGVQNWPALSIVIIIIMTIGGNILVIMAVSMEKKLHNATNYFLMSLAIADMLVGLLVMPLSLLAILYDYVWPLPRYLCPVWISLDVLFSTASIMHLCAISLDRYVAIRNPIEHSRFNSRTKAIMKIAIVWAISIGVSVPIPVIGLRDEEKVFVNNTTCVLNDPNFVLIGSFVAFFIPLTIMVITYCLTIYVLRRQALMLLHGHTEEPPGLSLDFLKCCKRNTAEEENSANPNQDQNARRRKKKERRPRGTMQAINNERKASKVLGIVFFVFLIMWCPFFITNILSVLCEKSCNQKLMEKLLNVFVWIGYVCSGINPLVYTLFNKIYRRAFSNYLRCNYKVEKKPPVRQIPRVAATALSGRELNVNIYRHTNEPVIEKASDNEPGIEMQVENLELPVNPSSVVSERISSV
Experiment: DRUGMATRIX: Serotonin (5-Hydroxytryptamine) 5-HT2C radioligand binding (ligand: [3H] Mesulergine)
Type: cell membranes, CHO-K1, Membrane
Details: cho-k1; Not Active = under 50% inhibition at 10 µM

SMILES | IC50
CCOC(=O)OC(C)OC1=C(C(=O)Nc2ccccn2)N(C)S(=O)(=O)c2ccccc21 (stereo not given) [AMPIROXICAM] | Not Active
CC[N+](CC)(CC)CCOc1cccc(OCC[N+](CC)(CC)CC)c1OCC[N+](CC)(CC)CC.[I-].[I-].[I-] [GALLAMINE TRIETHIODIDE] | Not Active

Biological target: Tyrosine-protein kinase Fyn (Homo sapiens, UniProt P06241);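 note: enzymatic inhibition of Fyn kinase activity measured with Poly(Glu:Tyr) as the phosphorylation substrate; in other assays of this panel Not Active means under 50% inhibition at 10 µM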
Sequence (P06241 whole entry): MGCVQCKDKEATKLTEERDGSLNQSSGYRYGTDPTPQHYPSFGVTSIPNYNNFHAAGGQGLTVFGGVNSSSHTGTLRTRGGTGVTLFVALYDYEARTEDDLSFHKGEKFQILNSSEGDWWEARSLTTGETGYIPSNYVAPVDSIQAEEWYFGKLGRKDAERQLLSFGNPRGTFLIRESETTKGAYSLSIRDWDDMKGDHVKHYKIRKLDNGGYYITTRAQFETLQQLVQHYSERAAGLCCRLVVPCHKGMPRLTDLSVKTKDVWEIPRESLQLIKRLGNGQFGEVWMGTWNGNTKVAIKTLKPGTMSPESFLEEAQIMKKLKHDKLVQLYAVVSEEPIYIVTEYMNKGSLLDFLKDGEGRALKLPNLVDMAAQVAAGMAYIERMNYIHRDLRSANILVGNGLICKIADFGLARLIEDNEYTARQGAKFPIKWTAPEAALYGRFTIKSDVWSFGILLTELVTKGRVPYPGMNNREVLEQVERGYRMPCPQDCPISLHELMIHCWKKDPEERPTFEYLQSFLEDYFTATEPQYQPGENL
Experiment: biochemical
Type: cell-based, Insect cells
Details: insect cells

SMILES | IC50
CCOC(=O)OC(C)OC1=C(C(=O)Nc2ccccn2)N(C)S(=O)(=O)c2ccccc21 (stereo not given) [AMPIROXICAM] | Not Active
CC[N+](CC)(CC)CCOc1cccc(OCC[N+](CC)(CC)CC)c1OCC[N+](CC)(CC)CC.[I-].[I-].[I-] [GALLAMINE TRIETHIODIDE] | Not Active

Biological target: Melanocortin receptor 5 (Homo sapiens, UniProt P33032); note: in other assays of this panel Not Active means under 50% inhibition at 10 µM
Sequence (P33032 whole entry): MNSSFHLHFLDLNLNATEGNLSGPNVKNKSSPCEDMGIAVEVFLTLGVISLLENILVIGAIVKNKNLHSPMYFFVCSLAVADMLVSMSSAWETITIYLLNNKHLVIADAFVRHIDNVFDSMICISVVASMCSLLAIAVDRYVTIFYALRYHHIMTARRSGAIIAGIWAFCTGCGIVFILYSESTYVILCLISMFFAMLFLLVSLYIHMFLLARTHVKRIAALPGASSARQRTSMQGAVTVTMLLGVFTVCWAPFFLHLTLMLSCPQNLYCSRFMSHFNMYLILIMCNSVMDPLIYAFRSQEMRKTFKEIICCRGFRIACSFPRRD
Experiment: not given
Type: cell membranes, HEK293, Membrane
Details: hek293

SMILES | IC50
CCOC(=O)OC(C)OC1=C(C(=O)Nc2ccccn2)N(C)S(=O)(=O)c2ccccc21 (stereo not given) [AMPIROXICAM] | Not Active
CC[N+](CC)(CC)CCOc1cccc(OCC[N+](CC)(CC)CC)c1OCC[N+](CC)(CC)CC.[I-].[I-].[I-] [GALLAMINE TRIETHIODIDE] | Not Active

Biological target: T3, Cathepsin G (Homo sapiens, UniProt P08311)
T3 sequence (P08311 whole entry): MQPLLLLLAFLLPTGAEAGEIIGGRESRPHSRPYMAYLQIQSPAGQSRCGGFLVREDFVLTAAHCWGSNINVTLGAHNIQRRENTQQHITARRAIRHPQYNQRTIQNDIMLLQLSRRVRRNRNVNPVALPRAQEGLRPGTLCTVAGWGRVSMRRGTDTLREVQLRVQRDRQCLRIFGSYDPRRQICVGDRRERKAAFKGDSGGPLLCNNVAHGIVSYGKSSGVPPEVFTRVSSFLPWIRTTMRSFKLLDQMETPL
Experiment: not given
Type: tissue-based
Details: neutrophil

SMILES | IC50
CCOC(=O)OC(C)OC1=C(C(=O)Nc2ccccn2)N(C)S(=O)(=O)c2ccccc21 (stereo not given) [AMPIROXICAM] | Not Active
CC[N+](CC)(CC)CCOc1cccc(OCC[N+](CC)(CC)CC)c1OCC[N+](CC)(CC)CC.[I-].[I-].[I-] [GALLAMINE TRIETHIODIDE] | Not Active

Biological target: Epidermal growth factor receptor (Homo sapiens, UniProt P00533)
Sequence (P00533 whole entry): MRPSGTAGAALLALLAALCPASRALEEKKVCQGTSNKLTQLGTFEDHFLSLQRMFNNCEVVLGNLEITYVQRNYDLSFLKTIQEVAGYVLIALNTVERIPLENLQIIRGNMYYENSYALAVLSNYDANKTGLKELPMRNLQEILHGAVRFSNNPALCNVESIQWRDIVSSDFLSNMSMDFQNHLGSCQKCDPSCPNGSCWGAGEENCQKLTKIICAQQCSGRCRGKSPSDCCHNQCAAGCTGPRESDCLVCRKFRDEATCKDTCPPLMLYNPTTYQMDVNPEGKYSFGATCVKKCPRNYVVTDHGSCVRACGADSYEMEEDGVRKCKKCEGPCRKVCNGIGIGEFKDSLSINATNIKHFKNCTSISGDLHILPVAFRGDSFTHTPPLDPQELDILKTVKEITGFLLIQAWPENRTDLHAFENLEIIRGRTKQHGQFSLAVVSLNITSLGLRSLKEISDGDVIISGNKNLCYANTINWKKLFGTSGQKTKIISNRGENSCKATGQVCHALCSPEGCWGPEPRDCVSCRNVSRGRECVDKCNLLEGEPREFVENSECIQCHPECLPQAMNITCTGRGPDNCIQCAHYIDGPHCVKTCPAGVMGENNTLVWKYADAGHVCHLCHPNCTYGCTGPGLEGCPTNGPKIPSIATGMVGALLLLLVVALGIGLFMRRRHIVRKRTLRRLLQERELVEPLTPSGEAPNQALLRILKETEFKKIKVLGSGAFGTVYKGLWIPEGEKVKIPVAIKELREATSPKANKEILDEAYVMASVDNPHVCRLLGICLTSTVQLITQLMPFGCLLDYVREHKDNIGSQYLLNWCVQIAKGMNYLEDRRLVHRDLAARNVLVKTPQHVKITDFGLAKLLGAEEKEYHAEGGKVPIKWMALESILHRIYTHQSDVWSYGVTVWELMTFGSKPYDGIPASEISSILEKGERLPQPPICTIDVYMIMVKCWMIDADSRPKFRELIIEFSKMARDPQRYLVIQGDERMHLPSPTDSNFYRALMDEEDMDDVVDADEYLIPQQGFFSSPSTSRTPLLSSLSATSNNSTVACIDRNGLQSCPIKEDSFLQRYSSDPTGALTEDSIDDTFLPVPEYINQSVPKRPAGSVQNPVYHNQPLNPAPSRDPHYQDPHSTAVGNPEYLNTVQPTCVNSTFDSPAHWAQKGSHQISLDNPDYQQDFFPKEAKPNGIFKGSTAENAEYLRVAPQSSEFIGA
Experiment: DRUGMATRIX: Protein Tyrosine Kinase, EGF Receptor enzyme inhibition (substrate: Poly(Glu:Tyr))
Type: cell-based, Insect cells
Details: insect cells; Not Active = under 50% inhibition at 10 µM

SMILES | IC50
CCOC(=O)OC(C)OC1=C(C(=O)Nc2ccccn2)N(C)S(=O)(=O)c2ccccc21 (stereo not given) [AMPIROXICAM] | Not Active
CC[N+](CC)(CC)CCOc1cccc(OCC[N+](CC)(CC)CC)c1OCC[N+](CC)(CC)CC.[I-].[I-].[I-] [GALLAMINE TRIETHIODIDE] | Not Active

Tested on: not listed separately
Experiment: DRUGMATRIX: Leukotriene, BLT (LTB4) radioligand binding (ligand: [3H]LTB4)
Type: cell membranes, Membrane
Details: u-937; Not Active = under 50% inhibition at 10 µM

SMILES | IC50 | Ki
CCOC(=O)OC(C)OC1=C(C(=O)Nc2ccccn2)N(C)S(=O)(=O)c2ccccc21 (stereo not given) [AMPIROXICAM] | Not Active | Not Active
CC[N+](CC)(CC)CCOc1cccc(OCC[N+](CC)(CC)CC)c1OCC[N+](CC)(CC)CC.[I-].[I-].[I-] [GALLAMINE TRIETHIODIDE] | Not Active | Not Active

Biological target: Melanocortin receptor 4 (Homo sapiens, UniProt P32245); note: in other assays of this panel Not Active means under 50% inhibition at 10 µM
Sequence (P32245 whole entry): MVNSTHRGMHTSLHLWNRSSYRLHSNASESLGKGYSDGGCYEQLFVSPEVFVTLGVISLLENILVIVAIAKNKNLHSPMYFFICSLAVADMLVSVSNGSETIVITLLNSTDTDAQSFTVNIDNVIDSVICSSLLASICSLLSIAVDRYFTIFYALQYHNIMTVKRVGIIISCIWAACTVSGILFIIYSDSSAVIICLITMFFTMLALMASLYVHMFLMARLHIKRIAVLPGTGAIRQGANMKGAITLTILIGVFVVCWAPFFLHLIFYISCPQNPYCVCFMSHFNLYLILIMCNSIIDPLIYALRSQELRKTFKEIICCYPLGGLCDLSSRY
Experiment: not given
Type: cell membranes, Membrane
Details: hek293

SMILES | IC50
CCOC(=O)OC(C)OC1=C(C(=O)Nc2ccccn2)N(C)S(=O)(=O)c2ccccc21 (stereo not given) [AMPIROXICAM] | Not Active
CC[N+](CC)(CC)CCOc1cccc(OCC[N+](CC)(CC)CC)c1OCC[N+](CC)(CC)CC.[I-].[I-].[I-] [GALLAMINE TRIETHIODIDE] | Not Active

Tested on: not listed separately
Experiment: DRUGMATRIX: Sigma2 radioligand binding (ligand: [3H] Ifenprodil)
Type: cell membranes, Rattus norvegicus, Wistar, Brain, Membrane
Details: Not Active = under 50% inhibition at 10 µM

SMILES | IC50 | Ki
CCOC(=O)OC(C)OC1=C(C(=O)Nc2ccccn2)N(C)S(=O)(=O)c2ccccc21 (stereo not given) [AMPIROXICAM] | Not Active | Not Active
CC[N+](CC)(CC)CCOc1cccc(OCC[N+](CC)(CC)CC)c1OCC[N+](CC)(CC)CC.[I-].[I-].[I-] [GALLAMINE TRIETHIODIDE] | Not Active | Not Active

Biological target: Beta-1 adrenergic receptor (Homo sapiens, UniProt P08588)
Sequence (P08588 whole entry): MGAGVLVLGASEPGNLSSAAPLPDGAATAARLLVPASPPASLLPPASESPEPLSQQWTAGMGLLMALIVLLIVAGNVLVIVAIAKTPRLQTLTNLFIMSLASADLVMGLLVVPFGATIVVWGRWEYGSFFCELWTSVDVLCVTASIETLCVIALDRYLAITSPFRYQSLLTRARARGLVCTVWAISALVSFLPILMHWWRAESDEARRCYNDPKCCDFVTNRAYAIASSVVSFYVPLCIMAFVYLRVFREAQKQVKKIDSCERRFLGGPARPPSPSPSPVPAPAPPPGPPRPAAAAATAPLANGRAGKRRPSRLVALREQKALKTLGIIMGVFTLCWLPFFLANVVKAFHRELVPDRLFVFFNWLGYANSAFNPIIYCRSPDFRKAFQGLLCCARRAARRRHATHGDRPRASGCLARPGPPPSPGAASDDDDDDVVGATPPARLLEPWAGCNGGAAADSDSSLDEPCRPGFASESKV
Experiment: DRUGMATRIX: Adrenergic beta1 radioligand binding (ligand: [125I] Cyanopindolol)
Type: cell membranes, CHO-K1, Membrane
Details: cho-k1; Not Active = under 50% inhibition at 10 µM

SMILES | IC50
CCOC(=O)OC(C)OC1=C(C(=O)Nc2ccccn2)N(C)S(=O)(=O)c2ccccc21 (stereo not given) [AMPIROXICAM] | Not Active
CC[N+](CC)(CC)CCOc1cccc(OCC[N+](CC)(CC)CC)c1OCC[N+](CC)(CC)CC.[I-].[I-].[I-] [GALLAMINE TRIETHIODIDE] | Not Active

Biological target: T4, Caspase-1 (Homo sapiens, UniProt P29466)
T4 sequence (P29466 whole entry): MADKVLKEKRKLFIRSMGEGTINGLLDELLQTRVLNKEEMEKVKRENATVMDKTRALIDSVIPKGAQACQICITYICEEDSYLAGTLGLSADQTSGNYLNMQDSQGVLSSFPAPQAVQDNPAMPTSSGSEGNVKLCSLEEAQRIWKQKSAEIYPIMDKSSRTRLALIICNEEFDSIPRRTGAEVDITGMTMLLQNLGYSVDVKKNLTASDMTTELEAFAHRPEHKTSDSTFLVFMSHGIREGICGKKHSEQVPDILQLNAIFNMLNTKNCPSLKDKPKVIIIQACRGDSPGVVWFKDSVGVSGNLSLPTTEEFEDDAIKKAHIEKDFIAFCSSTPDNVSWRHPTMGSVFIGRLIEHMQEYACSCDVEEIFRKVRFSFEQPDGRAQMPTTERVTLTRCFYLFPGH
Experiment: not given
Set-up: species or system Escherichia coli
Details: not given

SMILES | IC50
CCOC(=O)OC(C)OC1=C(C(=O)Nc2ccccn2)N(C)S(=O)(=O)c2ccccc21 (stereo not given) [AMPIROXICAM] | Not Active
CC[N+](CC)(CC)CCOc1cccc(OCC[N+](CC)(CC)CC)c1OCC[N+](CC)(CC)CC.[I-].[I-].[I-] [GALLAMINE TRIETHIODIDE] | Not Active

Tested on: not listed separately
Experiment: DRUGMATRIX: Purinergic P2X radioligand binding (ligand: [3H] alpha, beta-Methylene-ATP)
Type: cell membranes, Oryctolagus cuniculus, New Zealand albino, Urinary bladder, Membrane
Details: Not Active = under 50% inhibition at 10 µM

SMILES | IC50 | Ki
CCOC(=O)OC(C)OC1=C(C(=O)Nc2ccccn2)N(C)S(=O)(=O)c2ccccc21 (stereo not given) [AMPIROXICAM] | Not Active | Not Active
CC[N+](CC)(CC)CCOc1cccc(OCC[N+](CC)(CC)CC)c1OCC[N+](CC)(CC)CC.[I-].[I-].[I-] [GALLAMINE TRIETHIODIDE] | Not Active | Not Active

Biological target: T5, D(4) dopamine receptor (Homo sapiens, UniProt P21917)
T5 sequence (P21917 whole entry): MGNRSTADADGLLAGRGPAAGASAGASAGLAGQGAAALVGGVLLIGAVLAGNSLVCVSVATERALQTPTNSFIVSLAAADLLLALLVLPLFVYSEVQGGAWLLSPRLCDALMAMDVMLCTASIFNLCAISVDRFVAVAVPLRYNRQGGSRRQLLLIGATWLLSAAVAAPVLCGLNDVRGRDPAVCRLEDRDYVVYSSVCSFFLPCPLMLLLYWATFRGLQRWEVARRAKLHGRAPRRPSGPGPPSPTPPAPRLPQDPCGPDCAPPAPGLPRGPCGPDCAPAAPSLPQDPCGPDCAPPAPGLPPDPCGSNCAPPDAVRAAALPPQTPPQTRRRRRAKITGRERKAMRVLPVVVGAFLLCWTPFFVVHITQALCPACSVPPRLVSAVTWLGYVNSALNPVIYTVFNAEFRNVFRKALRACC
Experiment: DRUGMATRIX: Dopamine D4.2 radioligand binding (ligand: [3H] Spiperone)
Type: cell membranes, CHO-K1, Membrane
Details: cho-k1; Not Active = under 50% inhibition at 10 µM

SMILES | IC50
CCOC(=O)OC(C)OC1=C(C(=O)Nc2ccccn2)N(C)S(=O)(=O)c2ccccc21 (stereo not given) [AMPIROXICAM] | Not Active
CC[N+](CC)(CC)CCOc1cccc(OCC[N+](CC)(CC)CC)c1OCC[N+](CC)(CC)CC.[I-].[I-].[I-] [GALLAMINE TRIETHIODIDE] | Not Active
